Laboratory results taken from patent publication US7973061B2, “Anaplastic lymphoma kinase modulators and methods of use” (Exelixis, Inc., priority 2004, dated 2011).
pIC50: −log10 of the molar value.

Biological target: T1, ALK (baculovirus expressed human ALK kinase domain F1098-K1410) (Homo sapiens, UniProt Q9UM73)
T1 construct: human ALK kinase domain F1098-K1410; made in house
Assay: biochemical
Conditions: 1 μM ATP, 4 μM poly-AEKY, 12 nM ALK, 2 hours at ambient temperature; read-out: ALK IC50
Method: Kinase activity and compound inhibition are investigated using one or more of the three assay formats described below. The ATP concentrations for each assay are selected to be close to the Michaelis-Menten constant (KM) for each individual kinase. Dose-response experiments are performed at 10 different inhibitor concentrations in a 384-well plate format. […] Y=Min+(Max−Min)/(1+(X/IC50)^H) Equation (2) Luciferase-Coupled Chemiluminescent Kinase Assay
ALK biochemical activity was assessed using a Luciferase-Coupled Chemiluminescent Kinase assay (LCCA) format in which kinase activity was measured as the percent ATP remaining following the kinase reaction. ATP remaining after the kinase reaction was detected by luciferase-luciferin-coupled chemiluminescence. […] The mixture was incubated at ambient temperature for 2 hours after which 20 μL luciferase-luciferin mix was added and the chemiluminescent signal read using a Wallac Victor^2 reader. […] Consumption of ATP by ALK can be quantified and utilized as a measure of inhibition of ALK activity by compounds described herein. By employing serial dilutions of compounds to be tested, the ability of test compounds to inhibit ALK activity can be determined.

T1 sequence (Q9UM73 1098-1410): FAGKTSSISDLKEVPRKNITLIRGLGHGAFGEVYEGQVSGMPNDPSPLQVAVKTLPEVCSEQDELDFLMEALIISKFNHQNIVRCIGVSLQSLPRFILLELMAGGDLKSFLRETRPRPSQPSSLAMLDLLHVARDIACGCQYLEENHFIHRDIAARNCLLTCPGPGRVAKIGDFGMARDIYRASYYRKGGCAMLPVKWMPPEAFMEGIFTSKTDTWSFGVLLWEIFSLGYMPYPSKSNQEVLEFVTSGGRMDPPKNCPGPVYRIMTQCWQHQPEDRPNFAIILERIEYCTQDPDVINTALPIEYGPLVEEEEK

| pIC50 | Compound |
| --- | --- |
| 5.70 to 6.30 | CC(C)(C)OC(=O)NC1CCN(C(=O)c2csc(CNC(=O)COc3ccc(OC(F)(F)F)cc3)n2)C1 (centres unmarked) [Entry 278, 1,1-dimethylethyl (1-{[2-({[({4-[(trifluoromethyl)oxy]phenyl}oxy)acetyl]amino}methyl)-1,3-thiazol-4-yl]carbonyl}pyrrolidin-3-yl)carbamate] |
| 5.70 to 6.30 | O=C(COc1ccc(OC(F)(F)F)cc1)NCc1nc(C(=O)NC2CCCc3ccccc32)co1 (centres unmarked) [Entry 293, N-(1,2,3,4-tetrahydronaphthalen-1-yl)-2-({[({4-[(trifluoromethyl)oxy]phenyl}oxy)acetyl]amino}methyl)-1,3-oxazole-4-carboxamide] |
| 5.70 to 6.30 | CN(C)c1ccc(CNC(=O)c2csc(CNC(=O)COc3ccc(OC(F)(F)F)cc3)n2)cc1 [Entry 237, N-{[4-(dimethylamino)phenyl]methyl}-2-({[({4-[(trifluoromethyl)oxy]phenyl}oxy)acetyl]amino}methyl)-1,3-thiazole-4-carboxamide] |
| 5.70 to 6.30 | O=C(COc1ccc(OC(F)(F)F)cc1)NCc1nc(C(=O)NCC2CCCO2)cs1 (centres unmarked) [Entry 265, N-(tetrahydrofuran-2-ylmethyl)-2-({[({4-[(trifluoromethyl)oxy]phenyl}oxy)acetyl]amino}methyl)-1,3-thiazole-4-carboxamide] |
| < 5.70 | CCC1COC(C)(CCC(C)C)N1C(=O)c1csc(CNC(=O)COc2ccc(OC(F)(F)F)cc2)n1 (centres unmarked) [Entry 310, N-[(4-{[4-ethyl-2-methyl-2-(3-methylbutyl)-1,3-oxazolidin-3-yl]carbonyl}-1,3-thiazol-2-yl)methyl]-2-({4-[(trifluoromethyl)oxy]phenyl}oxy)acetamide] |
| 5.70 to 6.30 | CC(CNC(=O)c1coc(CNC(=O)COc2ccc(OC(F)(F)F)cc2)n1)c1ccccc1 (centres unmarked) [Entry 259, N-(2-phenylpropyl)-2-({[({4-[(trifluoromethyl)oxy]phenyl}oxy)acetyl]amino}methyl)-1,3-oxazole-4-carboxamide] |
| 5.70 to 6.30 | O=C(NCCc1cccc(Cl)c1)c1csc(CNC(=O)C2(c3ccc(Cl)cc3)CC2)n1 [Entry 236, 2-[({[1-(4-chlorophenyl)cyclopropyl]carbonyl}amino)methyl]-N-[2-(3-chlorophenyl)ethyl]-1,3-thiazole-4-carboxamide] |
| < 5.70 | CCN(CC)C1CCN(C(=O)c2csc(CNC(=O)COc3ccc(OC(F)(F)F)cc3)n2)C1 (centres unmarked) [Entry 311, N-[(4-{[3-(diethylamino)pyrrolidin-1-yl]carbonyl}-1,3-thiazol-2-yl)methyl]-2-({4-[(trifluoromethyl)oxy]phenyl}oxy)acetamide] |
| 5.70 to 6.30 | COc1ccccc1CNC(=O)c1csc(CNC(=O)COc2ccc(Cl)cc2)n1 [Entry 263, 2-[({[(4-chlorophenyl)oxy]acetyl}amino)methyl]-N-{[2-(methyloxy)phenyl]methyl}-1,3-thiazole-4-carboxamide] |
| < 5.70 | CO[C@@H]1[C@@H](C)/C=C(\C)[C@H](OC(N)=O)[C@@H](OC)/C=C\C=C(/C)C(=O)NC2=CC(=O)C=C(C2=O)[C@H](OC)[C@@H](C)C[C@H]1OC [Entry 301, (4E,6Z,8S,9S,10E,12S,13R,14R,16S,17R)-4,10,12,16-tetramethyl-8,13,14,17-tetrakis(methyloxy)-3,20,22-trioxo-2-azabicyclo[16.3.1]docosa-1(21),4,6,10,18-pentaen-9-yl carbamate, reference compound] |
| 5.70 to 6.30 | O=C(COc1ccc(OC(F)(F)F)cc1)NCc1nc(C(=O)NCc2ccccc2)co1 [Entry 297, N-(phenylmethyl)-2-({[({4-[(trifluoromethyl)oxy]phenyl}oxy)acetyl]amino}methyl)-1,3-oxazole-4-carboxamide] |

Continued, compound first:

| Compound | pIC50 |
| --- | --- |
| O=C(COc1ccc(I)cc1)NCc1nc(C(=O)NCCc2ccccc2F)cs1 [Entry 59, N-[2-(2-fluorophenyl)ethyl]-2-[({[(4-iodophenyl)oxy]acetyl}amino)methyl]-1,3-thiazole-4-carboxamide] | 6.30 to 7.30 |
| COc1ccccc1CNC(=O)c1csc(CNC(=O)COc2ccc(C(C)C)cc2)n1 [Entry 118, 2-{[({[4-(1-methylethyl)phenyl]oxy}acetyl)amino]methyl}-N-{[2-(methyloxy)phenyl]methyl}-1,3-thiazole-4-carboxamide] | 6.30 to 7.30 |
| COc1ccc(CNC(=O)c2csc(CNC(=O)COc3ccc(OC(F)(F)F)cc3)n2)cc1 [Entry 178, N-{[4-(methyloxy)phenyl]methyl}-2-({[({4-[(trifluoromethyl)oxy]phenyl}oxy)acetyl]amino}methyl)-1,3-thiazole-4-carboxamide] | 6.30 to 7.30 |
| COc1ccc(CCNC(=O)c2coc(CNC(=O)COc3ccc(OC(F)(F)F)cc3)n2)cc1 [Entry 224, N-{2-[4-(methyloxy)phenyl]ethyl}-2-({[({4-[(trifluoromethyl)oxy]phenyl}oxy)acetyl]amino}methyl)-1,3-oxazole-4-carboxamide] | 5.70 to 6.30 |
| CCOc1ccccc1CCNC(=O)c1csc(CNC(=O)COc2ccc(OC(F)(F)F)cc2)n1 [Entry 60, N-{2-[2-(ethyloxy)phenyl]ethyl}-2-({[({4-[(trifluoromethyl)oxy]phenyl}oxy)acetyl]amino}methyl)-1,3-thiazole-4-carboxamide] | 6.30 to 7.30 |
| CC(NC(=O)c1coc(CNC(=O)COc2ccc(OC(F)(F)F)cc2)n1)c1cccc2ccccc12 (centres unmarked) [Entry 99, N-(1-naphthalen-1-ylethyl)-2-({[({4-[(trifluoromethyl)oxy]phenyl}oxy)acetyl]amino}methyl)-1,3-oxazole-4-carboxamide] | 6.30 to 7.30 |
| CC(C)c1ccc(CC(=O)NCc2nc(C(=O)NCCc3ccccc3F)cs2)cc1 [Entry 114, N-[2-(2-fluorophenyl)ethyl]-2-[({[4-(1-methylethyl)phenyl]acetyl}amino)methyl]-1,3-thiazole-4-carboxamide] | 6.30 to 7.30 |
| CCc1ccc(NC(=O)NCc2nc(C(=O)NCCc3cccc(Cl)c3)cs2)cc1 [Entry 8, N-[2-(3-chlorophenyl)ethyl]-2-[({[(4-ethylphenyl)amino]carbonyl}amino)methyl]-1,3-thiazole-4-carboxamide] | > 7.30 |
| C[C@@H](CNC(=O)c1coc(CNC(=O)COc2ccc(OC(F)(F)F)cc2)n1)c1ccccc1 [Entry 128, N-[(2R)-2-phenylpropyl]-2-({[({4-[(trifluoromethyl)oxy]phenyl}oxy)acetyl]amino}methyl)-1,3-oxazole-4-carboxamide] | 6.30 to 7.30 |
| Cc1cccc(CCNC(=O)c2coc(CNC(=O)COc3ccc(OC(F)(F)F)cc3)n2)c1 [Entry 151, N-[2-(3-methylphenyl)ethyl]-2-({[({4-[(trifluoromethyl)oxy]phenyl}oxy)acetyl]amino}methyl)-1,3-oxazole-4-carboxamide] | 6.30 to 7.30 |
| CSc1ccc(NC(=O)NCc2nc(C(=O)NCCc3cccc(Cl)c3)cs2)cc1 [Entry 173, N-[2-(3-chlorophenyl)ethyl]-2-{[({[4-(methylthio)phenyl]amino}carbonyl)amino]methyl}-1,3-thiazole-4-carboxamide] | 6.30 to 7.30 |
| CCSCCNC(=O)c1csc(CNC(=O)COc2ccc(OC(F)(F)F)cc2)n1 [Entry 146, N-[2-(ethylthio)ethyl]-2-({[({4-[(trifluoromethyl)oxy]phenyl}oxy)acetyl]amino}methyl)-1,3-thiazole-4-carboxamide] | 6.30 to 7.30 |
